Test results from PubChem BioAssay AID330 (DTP/NCI, 2004).
“And” between values parts separate entries of the source, which are not always exact repeats. Equal values may be shown once. Inconclusive results and toxic doses are left out.

System: P388 leukemia ip, CD2F1 mice, survival T/C
Test: NCI In Vivo Anticancer Drug Screen. Data for tumor model P388 Leukemia (intraperitoneal) in CD2F1 (CDF1) mice
Details: endpoint: median survival time, higher = longer survival
Method in brief: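 Mice carrying the transplanted tumor received test compound or vehicle. Survival was recorded in each group, and the value is the treated-group measurement divided by that of the vehicle-treated control group.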

[1] = dose: 50.0 mg/kg/injection, schedule: Q01DX005 (ip), vehicle: saline with Tween-80

Compound: CO[C@H](C(=O)[C@@H](O)[C@@H](C)O)[C@@H]1Cc2cc3cc(OC4CC(OC5CC(O)C(O)C(C)O5)C(O)C(C)O4)c(C)c(O)c3c(O)c2C(=O)[C@H]1OC1CC(OC2CC(OC3CC(C)(O)C(O)C(C)O3)C(O)C(C)O2)C(O)C(C)O1 (some centres undefined)
- T/C (dose: 0.01 mg/kg/injection, schedule: Q01DX009 (ip), vehicle: saline): 100 % of control
- T/C (dose: 0.02 mg/kg/injection, schedule: Q01DX009 (sc), vehicle: saline): 100 % of control
- T/C (dose: 0.03 mg/kg/injection, schedule: Q01DX001 (ip), vehicle: saline): 100 % of control
- T/C (dose: 0.03 mg/kg/injection, schedule: Q01DX001 (sc), vehicle: saline): 104 % of control
- T/C (dose: 0.03 mg/kg/injection, schedule: Q01DX005 (iv), vehicle: saline): 100 % of control
- T/C (dose: 0.03 mg/kg/injection, schedule: Q01DX009 (ip), vehicle: saline): 100 % of control
- T/C (dose: 0.03 mg/kg/injection, schedule: Q01DX009 (sc), vehicle: saline): 104 % of control
- T/C (dose: 0.05 mg/kg/injection, schedule: Q01DX009 (ip), vehicle: water): 109 % of control and 110 % of control
- T/C (dose: 0.05 mg/kg/injection, schedule: Q01DX010 (ip), vehicle: water): 100 % of control
- T/C (dose: 0.06 mg/kg/injection, schedule: Q01DX001 (ip), vehicle: saline): 100 % of control
- T/C (dose: 0.06 mg/kg/injection, schedule: Q01DX001 (sc), vehicle: saline): 104 % of control
- T/C (dose: 0.06 mg/kg/injection, schedule: Q01DX005 (iv), vehicle: saline): 100 % of control
- T/C (dose: 0.06 mg/kg/injection, schedule: Q01DX009 (ip), vehicle: saline): 100 % of control
- T/C (dose: 0.06 mg/kg/injection, schedule: Q01DX009 (sc), vehicle: saline): 100 % of control
- T/C (dose: 0.1 mg/kg/injection, schedule: Q01DX009 (ip), vehicle: water): 115 % of control
- T/C (dose: 0.1 mg/kg/injection, schedule: Q01DX015 (ip), vehicle: water): 100 % of control and 109 % of control
- T/C (dose: 0.12 mg/kg/injection, schedule: Q01DX009 (ip), vehicle: clinical formulation): 103 % of control and 104 % of control and 108 % of control
- T/C (dose: 0.12 mg/kg/injection, schedule: Q01DX009 (ip), vehicle: water): 111 % of control and 114 % of control
- T/C (dose: 0.13 mg/kg/injection, schedule: Q01DX001 (ip), vehicle: saline): 100 % of control
- T/C (dose: 0.13 mg/kg/injection, schedule: Q01DX001 (sc), vehicle: saline): 100 % of control
- T/C (dose: 0.13 mg/kg/injection, schedule: Q01DX005 (ip), vehicle: water): 106 % of control and 107 % of control
- T/C (dose: 0.13 mg/kg/injection, schedule: Q01DX005 (iv), vehicle: saline): 100 % of control
- T/C (dose: 0.13 mg/kg/injection, schedule: Q01DX009 (ip), vehicle: water): 100 % of control
- T/C (dose: 0.13 mg/kg/injection, schedule: Q01DX009 (sc), vehicle: saline): 100 % of control
- T/C (dose: 0.16 mg/kg/injection, schedule: Q01DX009 (ip), vehicle: saline): 99 % of control
- T/C (dose: 0.2 mg/kg/injection, schedule: Q01DX009 (ip), vehicle: water): 118 % of control and 120 % of control
- T/C (dose: 0.2 mg/kg/injection, schedule: Q01DX015 (ip), vehicle: water): 109 % of control
- T/C (dose: 0.22 mg/kg/injection, schedule: Q01DX005 (ip), vehicle: clinical formulation): 108 % of control
- T/C (dose: 0.25 mg/kg/injection, schedule: Q01DX001 (ip), vehicle: saline): 100 % of control (2×) and 118 % of control
- T/C (dose: 0.25 mg/kg/injection, schedule: Q01DX001 (sc), vehicle: saline): 100 % of control
- T/C (dose: 0.25 mg/kg/injection, schedule: Q01DX005 (ip), vehicle: water): 108 % of control and 116 % of control
- T/C (dose: 0.25 mg/kg/injection, schedule: Q01DX005 (iv), vehicle: saline): 100 % of control
- T/C (dose: 0.25 mg/kg/injection, schedule: Q01DX009 (ip), vehicle: clinical formulation): 105 % of control and 109 % of control
- T/C (dose: 0.25 mg/kg/injection, schedule: Q01DX009 (oral), vehicle: saline): 109 % of control
- T/C (dose: 0.25 mg/kg/injection, schedule: Q01DX009 (sc), vehicle: saline): 100 % of control
- T/C (dose: 0.25 mg/kg/injection, schedule: Q03HX008 (ip), vehicle: saline): 108 % of control
- T/C (dose: 0.25 mg/kg/injection, schedule: Q04DX024 (ip), vehicle: saline): 116 % of control
- T/C (dose: 0.25 mg/kg/injection, schedule: Q08DX002 (ip), vehicle: saline): 118 % of control
- T/C (dose: 0.27 mg/kg/injection, schedule: Q01DX009 (ip), vehicle: saline): 99 % of control
- T/C (dose: 0.3 mg/kg/injection, schedule: Q01DX015 (ip), vehicle: water): 104 % of control and 118 % of control
- T/C (dose: 0.36 mg/kg/injection, schedule: Q01DX005 (ip), vehicle: clinical formulation): 105 % of control
- T/C (dose: 0.4 mg/kg/injection, schedule: Q01DX015 (ip), vehicle: water): 109 % of control
- T/C (dose: 0.45 mg/kg/injection, schedule: Q01DX009 (ip), vehicle: saline): 102 % of control
- T/C (dose: 0.5 mg/kg/injection, schedule: Q01DX001 (ip), vehicle: saline): 100 % of control (2×) and 113 % of control
- T/C (dose: 0.5 mg/kg/injection, schedule: Q01DX001 (oral), vehicle: saline): 100 % of control
- T/C (dose: 0.5 mg/kg/injection, schedule: Q01DX001 (sc), vehicle: saline): 100 % of control
- T/C (dose: 0.5 mg/kg/injection, schedule: Q01DX005 (ip), vehicle: water): 111 % of control and 114 % of control
- T/C (dose: 0.5 mg/kg/injection, schedule: Q01DX005 (iv), vehicle: saline): 100 % of control
- T/C (dose: 0.5 mg/kg/injection, schedule: Q01DX009 (ip), vehicle: clinical formulation): 116 % of control
- T/C (dose: 0.5 mg/kg/injection, schedule: Q01DX009 (ip), vehicle: saline): 113 % of control
- T/C (dose: 0.5 mg/kg/injection, schedule: Q01DX009 (ip), vehicle: water): 150 % of control
- T/C (dose: 0.5 mg/kg/injection, schedule: Q01DX009 (oral), vehicle: saline): 109 % of control
- T/C (dose: 0.5 mg/kg/injection, schedule: Q01DX009 (sc), vehicle: saline): 100 % of control
- T/C (dose: 0.5 mg/kg/injection, schedule: Q01DX015 (ip), vehicle: water): 118 % of control
- T/C (dose: 0.5 mg/kg/injection, schedule: Q03HX008 (ip), vehicle: saline): 108 % of control
- T/C (dose: 0.6 mg/kg/injection, schedule: Q01DX005 (ip), vehicle: clinical formulation): 113 % of control
- T/C (dose: 0.65 mg/kg/injection, schedule: Q01DX009 (ip), vehicle: water): 150 % of control
- T/C (dose: 0.75 mg/kg/injection, schedule: Q01DX009 (ip), vehicle: saline): 104 % of control
- T/C (dose: 1.0 mg/kg/injection, schedule: Q01DX001 (ip), vehicle: saline): 118 % of control
- T/C (dose: 1.0 mg/kg/injection, schedule: Q01DX001 (oral), vehicle: saline): 104 % of control
- T/C (dose: 1.0 mg/kg/injection, schedule: Q01DX001 (sc), vehicle: saline): 104 % of control
- T/C (dose: 1.0 mg/kg/injection, schedule: Q01DX005 (ip), vehicle: water): 118 % of control
- T/C (dose: 1.0 mg/kg/injection, schedule: Q01DX009 (ip), vehicle: clinical formulation): 104 % of control
- T/C (dose: 1.0 mg/kg/injection, schedule: Q01DX009 (oral), vehicle: saline): 109 % of control
- T/C (dose: 1.0 mg/kg/injection, schedule: Q03HX008 (ip), vehicle: saline): 116 % of control
- T/C (dose: 1.0 mg/kg/injection, schedule: Q08DX002 (ip), vehicle: saline): 109 % of control
- T/C (dose: 2.0 mg/kg/injection, schedule: Q01DX001 (oral), vehicle: saline): 100 % of control
- T/C (dose: 2.0 mg/kg/injection, schedule: Q01DX009 (ip), vehicle: clinical formulation): 116 % of control
- T/C (dose: 2.0 mg/kg/injection, schedule: Q01DX009 (oral), vehicle: saline): 109 % of control
- T/C (dose: 4.0 mg/kg/injection, schedule: Q01DX001 (oral), vehicle: saline): 100 % of control

Compound: CCOc1ccc(NC(=O)CC(C)O)cc1 (centres undefined)
- T/C (dose: 50.0 mg/kg/injection, schedule: Q01DX009 (ip), vehicle: saline with Tween-80): 94 % of control
- T/C (dose: 100.0 mg/kg/injection, schedule: Q01DX009 (ip), vehicle: saline with Tween-80): 93 % of control
- T/C (dose: 200.0 mg/kg/injection, schedule: Q01DX009 (ip), vehicle: saline with Tween-80): 96 % of control

Compound: CC1NC(C)c2c(ccc3ccccc23)O1 (centres undefined)
- T/C [1]: 100 % of control
- T/C (dose: 100.0 mg/kg/injection, schedule: Q01DX005 (ip), vehicle: saline with Tween-80): 100 % of control
- T/C (dose: 200.0 mg/kg/injection, schedule: Q01DX005 (ip), vehicle: saline with Tween-80): 97 % of control

Compound: CC1C2=C(CN(C)CC2)c2ccccc21 (centres undefined)
- T/C (dose: 12.5 mg/kg/injection, schedule: Q01DX005 (ip), vehicle: saline with Tween-80): 100 % of control
- T/C (dose: 25.0 mg/kg/injection, schedule: Q01DX005 (ip), vehicle: saline with Tween-80): 96 % of control
- T/C [1]: 105 % of control
